The values below come from ChEMBL document CHEMBL1143882, “Selective cell adhesion inhibitors: Barbituric acid based alpha4beta7--MAdCAM inhibitors” (Bioorg Med Chem Lett, 2008).

The target in one series is T1, Integrin alpha-4/beta-7 (Homo sapiens, UniProt P13612+P26010).
T1 sequence (P13612 whole entry): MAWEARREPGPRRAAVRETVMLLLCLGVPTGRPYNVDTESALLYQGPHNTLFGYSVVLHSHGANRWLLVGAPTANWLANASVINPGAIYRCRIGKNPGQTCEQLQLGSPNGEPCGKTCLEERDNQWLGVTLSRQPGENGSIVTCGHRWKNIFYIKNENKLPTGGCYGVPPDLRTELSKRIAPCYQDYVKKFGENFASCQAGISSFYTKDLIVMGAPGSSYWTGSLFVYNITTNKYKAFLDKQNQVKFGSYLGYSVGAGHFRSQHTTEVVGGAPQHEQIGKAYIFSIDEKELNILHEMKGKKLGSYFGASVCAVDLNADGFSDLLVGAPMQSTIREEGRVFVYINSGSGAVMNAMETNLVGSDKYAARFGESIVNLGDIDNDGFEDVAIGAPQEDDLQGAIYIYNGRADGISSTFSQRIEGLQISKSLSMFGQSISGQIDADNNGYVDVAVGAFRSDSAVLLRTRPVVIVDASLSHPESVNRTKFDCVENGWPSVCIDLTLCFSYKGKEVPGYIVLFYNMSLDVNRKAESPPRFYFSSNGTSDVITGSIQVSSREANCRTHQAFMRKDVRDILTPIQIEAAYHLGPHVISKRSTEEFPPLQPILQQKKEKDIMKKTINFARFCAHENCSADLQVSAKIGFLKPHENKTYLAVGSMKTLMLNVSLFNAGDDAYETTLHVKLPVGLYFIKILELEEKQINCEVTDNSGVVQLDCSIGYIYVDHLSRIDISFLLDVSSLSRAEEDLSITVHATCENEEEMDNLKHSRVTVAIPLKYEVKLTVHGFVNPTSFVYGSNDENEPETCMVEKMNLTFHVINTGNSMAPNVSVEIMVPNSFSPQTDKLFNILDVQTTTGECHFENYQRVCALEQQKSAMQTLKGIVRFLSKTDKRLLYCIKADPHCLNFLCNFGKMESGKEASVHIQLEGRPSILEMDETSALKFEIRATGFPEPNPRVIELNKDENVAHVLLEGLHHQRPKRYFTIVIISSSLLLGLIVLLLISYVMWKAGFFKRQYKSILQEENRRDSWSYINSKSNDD
T1 sequence (P26010 whole entry): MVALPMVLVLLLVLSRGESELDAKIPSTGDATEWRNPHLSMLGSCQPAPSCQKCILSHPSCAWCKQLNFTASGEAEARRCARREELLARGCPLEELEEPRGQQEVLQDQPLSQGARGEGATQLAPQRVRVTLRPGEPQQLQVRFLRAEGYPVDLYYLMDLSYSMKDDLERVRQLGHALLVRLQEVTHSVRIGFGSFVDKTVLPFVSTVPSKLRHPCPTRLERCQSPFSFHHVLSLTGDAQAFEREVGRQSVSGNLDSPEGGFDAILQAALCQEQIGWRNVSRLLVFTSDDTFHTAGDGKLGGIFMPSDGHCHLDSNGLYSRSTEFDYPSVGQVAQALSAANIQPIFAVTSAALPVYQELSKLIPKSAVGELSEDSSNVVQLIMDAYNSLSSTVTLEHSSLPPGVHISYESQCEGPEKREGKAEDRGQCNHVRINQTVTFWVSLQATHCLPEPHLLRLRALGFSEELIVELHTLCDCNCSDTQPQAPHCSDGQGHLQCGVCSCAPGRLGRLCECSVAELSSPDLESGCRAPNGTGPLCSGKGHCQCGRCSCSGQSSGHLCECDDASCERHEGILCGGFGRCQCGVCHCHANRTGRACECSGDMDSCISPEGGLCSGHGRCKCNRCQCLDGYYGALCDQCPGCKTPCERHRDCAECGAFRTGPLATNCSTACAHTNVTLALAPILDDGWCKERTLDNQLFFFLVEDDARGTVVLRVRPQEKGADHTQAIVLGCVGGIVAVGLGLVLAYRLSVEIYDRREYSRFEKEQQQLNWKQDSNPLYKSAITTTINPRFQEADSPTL
In words: Inhibition of human integrin alpha-4-beta-7-MAdCAM interaction in human RPMI 8866 cells by whole-cell adhesion assay. In kind it is cell-based.

The target of a further series is Integrin alpha-4/beta-1 (Homo sapiens, UniProt P05556+P13612). In words: Inhibition of integrin alpha-4-beta-1-VCAM interaction. In kind it is protein-complex assay.
Chain of Integrin alpha-4/beta-1 (P05556 whole entry, one chain of several): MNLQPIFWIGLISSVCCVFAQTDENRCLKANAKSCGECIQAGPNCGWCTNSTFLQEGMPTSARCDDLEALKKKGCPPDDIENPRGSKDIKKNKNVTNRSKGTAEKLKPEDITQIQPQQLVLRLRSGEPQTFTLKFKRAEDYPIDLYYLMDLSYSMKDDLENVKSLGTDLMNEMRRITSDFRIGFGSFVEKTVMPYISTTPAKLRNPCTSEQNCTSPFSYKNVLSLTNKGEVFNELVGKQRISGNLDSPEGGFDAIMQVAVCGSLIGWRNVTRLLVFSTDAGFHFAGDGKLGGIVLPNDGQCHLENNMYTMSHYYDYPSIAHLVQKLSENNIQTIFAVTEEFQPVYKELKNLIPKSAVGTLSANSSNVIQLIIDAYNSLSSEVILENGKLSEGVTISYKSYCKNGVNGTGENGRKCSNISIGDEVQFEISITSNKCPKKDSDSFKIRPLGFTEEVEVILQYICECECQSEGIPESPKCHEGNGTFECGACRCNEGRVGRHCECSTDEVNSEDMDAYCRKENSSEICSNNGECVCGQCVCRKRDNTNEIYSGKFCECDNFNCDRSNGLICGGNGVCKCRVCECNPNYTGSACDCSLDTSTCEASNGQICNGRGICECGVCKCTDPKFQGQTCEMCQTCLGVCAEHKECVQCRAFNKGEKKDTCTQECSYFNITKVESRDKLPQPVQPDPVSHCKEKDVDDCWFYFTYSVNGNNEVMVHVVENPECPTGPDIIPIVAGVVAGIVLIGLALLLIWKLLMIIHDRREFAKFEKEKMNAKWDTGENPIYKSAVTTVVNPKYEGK
Another series concerns the target Integrin alpha-5/beta-1 (Homo sapiens, UniProt P05556+P08648). In words: Inhibition of integrin alpha-5-beta-1-fibronectin interaction. In kind it is protein-complex assay.
Series [1] is described as follows: Oral bioavailability in mouse. The format is ADME, organism-based. The conditions noted are these: in vivo.
The next series is filed under the species Mus musculus. In words: AUC in mouse. The format is ADME, organism-based, Plasma. Conditions: in vivo.
A short description of series [2]: Clearance in mouse. The format is ADME, organism-based. The conditions noted are these: in vivo.
Series [3] can be described thus: Volume of distribution in mouse. The format is ADME, organism-based. The conditions noted are these: in vivo.
A short description of series [4]: Half life in mouse. In kind it is ADME, organism-based. The conditions noted are these: in vivo.

Chain of Integrin alpha-5/beta-1 (P05556 21-798 limits assumed): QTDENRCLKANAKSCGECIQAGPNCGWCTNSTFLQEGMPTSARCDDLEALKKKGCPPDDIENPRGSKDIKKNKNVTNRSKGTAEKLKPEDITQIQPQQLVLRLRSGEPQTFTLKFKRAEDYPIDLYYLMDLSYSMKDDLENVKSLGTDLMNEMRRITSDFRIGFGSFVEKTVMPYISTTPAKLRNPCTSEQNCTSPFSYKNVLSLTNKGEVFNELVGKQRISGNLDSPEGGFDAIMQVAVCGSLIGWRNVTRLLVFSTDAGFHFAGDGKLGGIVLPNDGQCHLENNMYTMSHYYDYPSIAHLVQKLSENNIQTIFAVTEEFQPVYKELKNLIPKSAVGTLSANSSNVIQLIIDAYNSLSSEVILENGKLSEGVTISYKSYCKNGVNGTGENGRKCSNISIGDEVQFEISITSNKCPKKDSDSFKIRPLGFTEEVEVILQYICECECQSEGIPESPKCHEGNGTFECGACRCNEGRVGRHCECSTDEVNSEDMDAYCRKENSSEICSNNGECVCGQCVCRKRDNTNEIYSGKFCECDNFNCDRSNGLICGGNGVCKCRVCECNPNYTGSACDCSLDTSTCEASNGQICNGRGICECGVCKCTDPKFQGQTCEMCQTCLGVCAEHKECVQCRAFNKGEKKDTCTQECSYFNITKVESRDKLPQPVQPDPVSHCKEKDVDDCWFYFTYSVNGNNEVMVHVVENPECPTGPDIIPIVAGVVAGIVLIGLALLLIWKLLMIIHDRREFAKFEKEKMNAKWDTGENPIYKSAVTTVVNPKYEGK
Chain of Integrin alpha-5/beta-1 (P08648 42-894 limits assumed): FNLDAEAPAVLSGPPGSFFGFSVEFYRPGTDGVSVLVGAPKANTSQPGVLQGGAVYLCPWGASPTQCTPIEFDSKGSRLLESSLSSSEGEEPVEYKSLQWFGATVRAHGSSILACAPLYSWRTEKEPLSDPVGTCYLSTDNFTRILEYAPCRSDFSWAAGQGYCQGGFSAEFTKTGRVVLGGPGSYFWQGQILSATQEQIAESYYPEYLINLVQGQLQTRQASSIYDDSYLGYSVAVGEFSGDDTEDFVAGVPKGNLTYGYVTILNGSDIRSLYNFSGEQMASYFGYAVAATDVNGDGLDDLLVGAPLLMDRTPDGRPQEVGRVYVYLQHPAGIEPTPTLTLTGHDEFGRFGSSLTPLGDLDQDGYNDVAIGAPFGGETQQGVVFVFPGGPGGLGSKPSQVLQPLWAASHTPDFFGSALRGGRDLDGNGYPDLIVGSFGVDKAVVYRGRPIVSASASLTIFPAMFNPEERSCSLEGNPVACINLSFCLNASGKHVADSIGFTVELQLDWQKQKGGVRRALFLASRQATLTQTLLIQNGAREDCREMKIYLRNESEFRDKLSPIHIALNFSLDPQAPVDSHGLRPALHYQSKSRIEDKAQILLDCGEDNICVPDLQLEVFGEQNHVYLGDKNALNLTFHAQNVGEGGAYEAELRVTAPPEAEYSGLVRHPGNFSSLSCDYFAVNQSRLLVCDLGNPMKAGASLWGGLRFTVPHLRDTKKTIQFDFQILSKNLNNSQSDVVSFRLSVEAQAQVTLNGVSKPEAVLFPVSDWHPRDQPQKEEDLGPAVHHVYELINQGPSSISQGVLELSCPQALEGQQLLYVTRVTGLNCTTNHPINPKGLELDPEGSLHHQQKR
Chain of Integrin alpha-5/beta-1 (P08648 895-1049 limits assumed): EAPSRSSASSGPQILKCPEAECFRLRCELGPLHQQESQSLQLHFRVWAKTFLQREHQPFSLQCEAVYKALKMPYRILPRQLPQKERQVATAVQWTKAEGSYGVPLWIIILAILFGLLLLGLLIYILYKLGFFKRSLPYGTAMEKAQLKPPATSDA

Take `O=C1NC(=O)N(c2ccccc2)C(=O)/C1=C\c1ccccc1`: on Integrin alpha-4/beta-7, the IC50 amounted to 2200 nM. Still for that read-out and setting: the figure for `O=C1NC(=O)N(c2ccccc2)C(=O)/C1=C\c1ccc(C(F)(F)F)cc1` is 1300 nM. As to `O=C1NC(=O)N(c2ccccc2-c2ccccc2)C(=O)/C1=C\c1c[nH]c2ccccc12`, the IC50 against Integrin alpha-4/beta-1 was more than 20000 nM; against Integrin alpha-4/beta-7 it was 260 nM; at Integrin alpha-5/beta-1, more than 20000 nM. `O=C1NC(=O)N(c2ccccc2)C(=O)/C1=C\c1cc2ccccc2[nH]1` registered an IC50 against Integrin alpha-4/beta-7 of 10000 nM.

With `Cn1cc(/C=C2/C(=O)NC(=O)N(c3ccccc3)C2=O)c2ccccc21`, half-maximal inhibition against Integrin alpha-4/beta-7 (IC50) required 4100 nM.

On to `O=C1NC(=O)N(c2ccccc2)C(=O)/C1=C\c1ccco1`, for which the IC50 is more than 20000 nM on Integrin alpha-4/beta-1, 1300 nM at Integrin alpha-4/beta-7 and more than 20000 nM on Integrin alpha-5/beta-1.

For `O=C1NC(=O)N(c2cc(Cl)cc(Cl)c2)C(=O)/C1=C\c1ccccc1`, half-maximal inhibition at Integrin alpha-4/beta-7 (IC50) required 1600 nM.

On to `Cn1cc(/C=C2/C(=O)NC(=O)N(c3cccc4ccccc34)C2=O)c2ccccc21`, for which, on Integrin alpha-4/beta-7, the IC50 came to 180 nM. On the same count and under the same terms, to `CC(C)(C)N1C(=O)NC(=O)/C(=C/c2c[nH]c3ccccc23)C1=O` belongs more than 20000 nM. On to `O=C1NC(=O)N(c2cccc3ccccc23)C(=O)/C1=C\c1c[nH]c2ccccc12`, for which the bioavailability in series [1] came out at 62%. The compound further came in with an AUC in the series listed under Mus musculus of 170 mg·min/mL. In series [2], this compound returned a clearance of 71 mL/min/kg. The IC50 against Integrin alpha-4/beta-1 was more than 20000 nM; at Integrin alpha-4/beta-7 it was 60 nM; against Integrin alpha-5/beta-1, more than 20000 nM. The compound further displayed a Vd in series [3] of 24.8 L/kg. Further, the half-life in series [4] is 4.1 h.

`O=C1NC(=O)N(c2ccccc2)C(=O)/C1=C\c1c[nH]c2ccccc12` had an IC50 on Integrin alpha-4/beta-7 of 900 nM.

Compound `O=C(/C=C1/C(=O)NC(=O)N(c2ccccc2)C1=O)/C=C/c1ccccc1` came in with an IC50 at Integrin alpha-4/beta-7 of 8600 nM. Same read-out and setting: to `O=C1NC(=O)N(c2ccc(Cl)cc2)C(=O)/C1=C\c1ccccc1` belongs 1000 nM; to `CN1C(=O)/C(=C/c2c[nH]c3ccccc23)C(=O)N(c2cccc3ccccc23)C1=O`, 5500 nM.
